# US20160177395A1, “BIOMARKERS FOR THE PREDICTION OF RENAL INJURY” (priority 2007, published 2016)
# Where “and” joins values, the source holds several entries; their conditions need not be identical. Equal values may be shown once.
# Experiments:
# kidney = assay: Renal histopathology of rats treated with T1, T2, T3; type: in vivo, rat; conditions: rat, in vivo
# Experimental: Each group consisted of 6 male and 6 female rats. The additional groups consisted of 6 males and 6 female rats treated with control compound for a single day and for five days, as described in Table 24.
# T2 “no observed effect level” (NOEL, i.e., the maximal dose at which no toxic effect is visible) is 15 mg/kg.
# At autopsy, both kidneys of each animal were removed and each kidney was cross sectioned. Half of each kidney was sent to RNA extraction and analysis.
# [1] = tested on: kidney tissues of treated or untreated rats; assay: Real-time qRT-PCR of signature amplicons, validation stage, labeled and un-labeled samples (Table 23); conditions: for H31883_DB71_seg13 normalized qRT-PCR result / MUSCYCG1R_DB81_seg19-20 normalized qRT-PCR result / W41270_DB81_seg11 normalized qRT-PCR result: un-labeled sample, one line per animal; for AI045075_DB71_seg6 normalized qRT-PCR expression (Interferon stimulated exonuclease 20 (ISG20) transcript) / H31883_DB71_seg13 normalized qRT-PCR expression (Cyclin-G1 (CCNG1) transcript) / MUSCYCG1R_DB81_seg19-20 normalized qRT-PCR expression / W41270_DB81_seg11 normalized qRT-PCR expression (tumor necrosis factor receptor superfamily, member 12a transcript) / W64472_DB81_seg2 normalized qRT-PCR expression (Interferon stimulated exonuclease 20 (ISG20) transcript) / W83813_DB81_seg27 normalized qRT-PCR expression: un-labeled samples, kidney of individual male/female rats
# From the text: New primers were designed for part of the transcripts, and new conditions for several qRT-PCR reactions were used, as described below.
# The measurements were normalized in two steps. First—according to the house-keeping-genes normalization factor, and second—each plate was normalized according to ratio of the intensity measurements from samples appearing in it and in the shuffled (normalization) plate (Table 25 provides the plates details and the section “Inter-Plate Normalization” provides details of the normalization process). The normalized values were further scaled by a factor, for ease of viewing.
# RT was prepared and qRT-PCR performed and analyzed as described hereinabove. qRT-PCR was performed for the four genes comprising the signature of the discovery stage described in Table 13. Two amplicons were tested for each gene—one representing the wild-type transcript, and another representing an alternative splice variant. Each amplicon was measured using the labeled samples described in Table 9 herein, as well as the un-labeled samples. Samples from both groups (labeled and un-labeled) were tested in seven 96 well plates as described in Table 25. In order to correct possible run to run variations, the following controls were added: 1. several samples were repeated in all 96 wells plates; 2. control shuffled plate was designed which combined samples from all seven test plates.
# To account for possible differences of qRT-PCR measurements between the different plates due to experimental artifacts, a normalization plate was planned. This plate, designated hereinabove ‘shuffled plate’, contained samples from all other plates. Real Time PCR was performed on this plate using the primers appropriate for all candidates in tables 26 and 27. For each other plate (plates 1-7 above) and each amplicon, the samples appearing also in the shuffled plate were examined—the ratio between the transcript abundance as measured in the plate to the abundance as measured in the shuffled plate was calculated, outliers were manually removed, and the geometric mean of the left ratios was taken as an additional multiplicative normalization factor for the plate and amplicon.
# [2] = Ds1, Day1, oral gavage, female rat kidney
# [3] = Ds1, Day1, oral gavage, male rat kidney
# [4] = Ds1, Day5, oral gavage, female rat kidney
# [5] = Ds1, Day5, oral gavage, male rat kidney
# [6] = Ds2, Day1, oral gavage, female rat kidney
# [7] = Ds2, Day1, oral gavage, male rat kidney
# [8] = Ds2, Day5, oral gavage, female rat kidney
# [9] = Ds2, Day5, oral gavage, male rat kidney
structure (smiles),measurement,setting,value
"Nc1nc2ccc(OC(F)(F)F)cc2s1 [T3, 6-(trifluoromethoxy)benzothiazol-2-amine]",Renal damage,kidney,no renal damage after up to 35 days of treatment
same,H31883_DB71_seg13 normalized qRT-PCR result,[1]; [2],0.394 and 0.356 and 0.205
same,MUSCYCG1R_DB81_seg19-20 normalized qRT-PCR result,[1]; [2],0.85 and 1.252 and 0.37
same,W41270_DB81_seg11 normalized qRT-PCR result,[1]; [2],0.859 and 1.064 and 0.507
same,H31883_DB71_seg13 normalized qRT-PCR result,[1]; [3],0.898 and 0.512 and 0.989 and 0.789
same,MUSCYCG1R_DB81_seg19-20 normalized qRT-PCR result,[1]; [3],0.918 and 0.845 and 1.025 and 0.713
same,W41270_DB81_seg11 normalized qRT-PCR result,[1]; [3],0.567 and 1.106 and 1.844 and 0.808
same,H31883_DB71_seg13 normalized qRT-PCR result,[1]; [4],0.701 and 1.155 and 0.791 and 1.096
same,MUSCYCG1R_DB81_seg19-20 normalized qRT-PCR result,[1]; [4],0.501 and 0.727 and 0.928 and 1.021
same,W41270_DB81_seg11 normalized qRT-PCR result,[1]; [4],0.479 and 0.546 and 0.601 and 0.677
same,H31883_DB71_seg13 normalized qRT-PCR result,[1]; [5],1.054 and 0.818 and 0.72
same,MUSCYCG1R_DB81_seg19-20 normalized qRT-PCR result,[1]; [5],1.285 and 1.133 and 1.175
same,W41270_DB81_seg11 normalized qRT-PCR result,[1]; [5],0.88 and 0.8 and 0.499
same,H31883_DB71_seg13 normalized qRT-PCR result,[1]; [6],0.874 and 0.929 and 1.454
same,MUSCYCG1R_DB81_seg19-20 normalized qRT-PCR result,[1]; [6],1.132 and 1.211 and 0.575
same,W41270_DB81_seg11 normalized qRT-PCR result,[1]; [6],0.847 and 1.043 and 1.227
same,H31883_DB71_seg13 normalized qRT-PCR result,[1]; [7],0.276 and 0.164 and 0.218 and 0.211
same,MUSCYCG1R_DB81_seg19-20 normalized qRT-PCR result,[1]; [7],1.479 and 0.566 and 1.063 and 1.117
same,W41270_DB81_seg11 normalized qRT-PCR result,[1]; [7],2.291 and 1.042 and 1.597 and 1.35
same,H31883_DB71_seg13 normalized qRT-PCR result,[1]; [8],0.81 and 0.711 and 1.599 and 1.018
same,MUSCYCG1R_DB81_seg19-20 normalized qRT-PCR result,[1]; [8],0.666 and 0.977 and 1.436 and 0.58
same,W41270_DB81_seg11 normalized qRT-PCR result,[1]; [8],0.587 and 0.623 and 1.24 and 0.704
same,H31883_DB71_seg13 normalized qRT-PCR result,[1]; [9],1.103 and 0.911
same,MUSCYCG1R_DB81_seg19-20 normalized qRT-PCR result,[1]; [9],0.765 and 1.037
same,W41270_DB81_seg11 normalized qRT-PCR result,[1]; [9],0.494 and 3.181
same,AI045075_DB71_seg6 normalized qRT-PCR expression (Interferon stimulated exonuclease 20 (ISG20) transcript),"[1]; dose Ds1, Day1, oral gavage",0.354 and 1.103 and 0.678 and 0.596
same,H31883_DB71_seg13 normalized qRT-PCR expression (Cyclin-G1 (CCNG1) transcript),"[1]; dose Ds1, Day1, oral gavage",0.919 and 0.764 and 0.611 and 0.663 and 0.569 and 1.366 and 0.637 and 0.949 and 0.7 and 0.582 and 1.074
same,MUSCYCG1R_DB81_seg19-20 normalized qRT-PCR expression,"[1]; dose Ds1, Day1, oral gavage",0.96 and 0.232 and 0.183 and 1.044 and 1.137 and 0.132 and 0.134 and 0.767 and 0.441 and 0.114 and 0.726
same,"W41270_DB81_seg11 normalized qRT-PCR expression (tumor necrosis factor receptor superfamily, member 12a transcript)","[1]; dose Ds1, Day1, oral gavage",0.64 and 0.457 and 0.575 and 0.374 and 0.468 and 0.465 and 0.344 and 0.568 and 0.551 and 0.282 and 0.649
same,W64472_DB81_seg2 normalized qRT-PCR expression (Interferon stimulated exonuclease 20 (ISG20) transcript),"[1]; dose Ds1, Day1, oral gavage",0.483 and 1.31 and 1.296 and 0.52
same,W83813_DB81_seg27 normalized qRT-PCR expression,"[1]; dose Ds1, Day1, oral gavage",0.322 and 0.663 and 0.497 and 0.402
same,AI045075_DB71_seg6 normalized qRT-PCR expression (Interferon stimulated exonuclease 20 (ISG20) transcript),"[1]; dose Ds1, Day5, oral gavage",0.615 and 1.082 and 1.102 and 1.032
same,H31883_DB71_seg13 normalized qRT-PCR expression (Cyclin-G1 (CCNG1) transcript),"[1]; dose Ds1, Day5, oral gavage",1.65 and 1.003 and 1.338 and 0.576 and 1.082 and 1.358 and 1.585 and 0.946 and 1.094 and 1.3 and 1.301
same,MUSCYCG1R_DB81_seg19-20 normalized qRT-PCR expression,"[1]; dose Ds1, Day5, oral gavage",0.649 and 0.716 and 1.035 and 1.226 and 0.857 and 0.625 and 0.525 and 0.398 and 1.413 and 0.62 and 0.638
same,"W41270_DB81_seg11 normalized qRT-PCR expression (tumor necrosis factor receptor superfamily, member 12a transcript)","[1]; dose Ds1, Day5, oral gavage",0.722 and 1.807 and 0.483 and 0.899 and 0.832 and 1.015 and 0.699 and 0.495 and 1.093 and 0.482 and 1.957
same,W64472_DB81_seg2 normalized qRT-PCR expression (Interferon stimulated exonuclease 20 (ISG20) transcript),"[1]; dose Ds1, Day5, oral gavage",0.852 and 1.176 and 1.034 and 0.822
same,W83813_DB81_seg27 normalized qRT-PCR expression,"[1]; dose Ds1, Day5, oral gavage",0.754 and 1.146 and 1.388 and 0.659
same,AI045075_DB71_seg6 normalized qRT-PCR expression (Interferon stimulated exonuclease 20 (ISG20) transcript),"[1]; dose Ds2, Day1, oral gavage",0.444 and 1.146 and 0.527
same,H31883_DB71_seg13 normalized qRT-PCR expression (Cyclin-G1 (CCNG1) transcript),"[1]; dose Ds2, Day1, oral gavage",0.802 and 0.969 and 0.632 and 1.119 and 0.923 and 0.767 and 1.13 and 1.47 and 0.662 and 0.643
same,MUSCYCG1R_DB81_seg19-20 normalized qRT-PCR expression,"[1]; dose Ds2, Day1, oral gavage",0.92 and 0.203 and 0.275 and 2.153 and 0.29 and 0.152 and 1.45 and 2.313 and 0.798 and 0.158
same,"W41270_DB81_seg11 normalized qRT-PCR expression (tumor necrosis factor receptor superfamily, member 12a transcript)","[1]; dose Ds2, Day1, oral gavage",0.49 and 0.347 and 0.174 and 0.912 and 0.418 and 0.359 (2×) and 0.667 and 0.956 and 0.897
same,W64472_DB81_seg2 normalized qRT-PCR expression (Interferon stimulated exonuclease 20 (ISG20) transcript),"[1]; dose Ds2, Day1, oral gavage",0.659 and 1.566 and 0.602
same,W83813_DB81_seg27 normalized qRT-PCR expression,"[1]; dose Ds2, Day1, oral gavage",0.67 and 0.137 and 0.761
same,AI045075_DB71_seg6 normalized qRT-PCR expression (Interferon stimulated exonuclease 20 (ISG20) transcript),"[1]; dose Ds2, Day5, oral gavage",0.37 and 1.451 and 0.53
same,H31883_DB71_seg13 normalized qRT-PCR expression (Cyclin-G1 (CCNG1) transcript),"[1]; dose Ds2, Day5, oral gavage",0.942 and 0.718 and 1.058 and 1.087 and 2.34 and 1.259 and 0.705 and 0.846 and 0.949
same,MUSCYCG1R_DB81_seg19-20 normalized qRT-PCR expression,"[1]; dose Ds2, Day5, oral gavage",1.567 and 0.875 and 1.708 and 1.024 and 1.119 and 1.475 and 1.004 and 0.658 and 1.003
same,"W41270_DB81_seg11 normalized qRT-PCR expression (tumor necrosis factor receptor superfamily, member 12a transcript)","[1]; dose Ds2, Day5, oral gavage",0.762 and 1.066 and 1.119 and 0.472 and 0.766 and 0.944 and 0.363 and 0.605 and 0.43
same,W64472_DB81_seg2 normalized qRT-PCR expression (Interferon stimulated exonuclease 20 (ISG20) transcript),"[1]; dose Ds2, Day5, oral gavage",0.368 and 0.779 and 0.656
same,W83813_DB81_seg27 normalized qRT-PCR expression,"[1]; dose Ds2, Day5, oral gavage",0.729 and 0.728 and 0.933
